According to publication PMC7036753, “Lipidated Analogs of the LL-37-Derived Peptide Fragment KR12—Structural Analysis, Surface-Active Properties and Antimicrobial Activity” (International Journal of Molecular Sciences, 2020):
In brackets after ≈: the same amount, converted by molar mass. Peptide text beside a SMILES is read from it. * marks the point of attachment. Bz = O=C(c1ccccc1)*

Key:
[1] = tested on: S. aureus ATCC 9144 biofilm; assay type: cell-based, Staphylococcus aureus; details: S. aureus ATCC 9144 biofilm, 24 h
Procedure: (§1) The MBECs values were determined according to the method reported previously. Briefly, 24-h cultures of S. aureus, namely: S. aureus ATCC 25923, S. aureus ATCC 6538, S. aureus ATCC 33591 (MRSA), S. aureus ATCC 9144 and S. aureus ATCC 12598 were diluted to a concentration of 0.5 × 10^7 CFU/mL and added to the test wells of polystyrene microdilution flat-bottom plates. After 24-h of incubation at 37 °C, the wells were rinsed three times with PBS to remove non-adherent cells. Subsequently, 100 μL of the test compounds over a concentration range 0.5–256 µg/mL were added to each well and incubated again for 24 h at 37 °C. After this period, 20 μL of the resazurin (7-hydroxy-3H-phenoxazin-3-one-10-oxide, 4 mg/mL) solution was added to each well. After 1 h of incubation, the MBECs were read out. The determined values were recorded as the lowest concentration at which the reduction of resazurin (from blue to pink) was lower or equal to 10 ± 0.5% as compared to the positive (100%) and negative (0%) controls. All experiments were performed in triplicate.

[2] = tested on: S. aureus ATCC 33591 (MRSA) biofilm; assay type: cell-based, Staphylococcus aureus; details: S. aureus ATCC 33591 biofilm, 24 h
Procedure: as §1

[3] = tested on: S. aureus ATCC 12598 biofilm; assay type: cell-based, Staphylococcus aureus; details: S. aureus ATCC 12598 biofilm, 24 h
Procedure: as §1

[4] = tested on: S. aureus ATCC 6538 biofilm; assay type: cell-based, Staphylococcus aureus; details: S. aureus ATCC 6538 biofilm, 24 h
Procedure: as §1

[5] = tested on: S. aureus ATCC 25923 biofilm; assay type: cell-based, Staphylococcus aureus; details: S. aureus ATCC 25923 biofilm, 24 h
Procedure: as §1

S. aureus ATCC 6538 = assay type: cell-based, Staphylococcus aureus; details: S. aureus ATCC 6538; Mueller-Hinton Broth, 18 h
Procedure: (§2) Examination of antimicrobial activity of the test compounds was conducted on reference strains of bacteria assigned to ESKAPE group of pathogens: Enterococcus faecium ATCC 700221, Klebsiella pneumoniae ATCC 700603, Acinetobacter baumannii ATCC BAA-1605, Pseudomonas aeruginosa ATCC 9027, Klebsiella aerogenes ATCC 13048 (formerly Enterobacter aerogenes) and reference strains of Staphylococcus aureus, namely: S. aureus ATCC 25923, S. aureus ATCC 6538, S. aureus ATCC 33591 (MRSA), S. aureus ATCC 9144 and S. aureus ATCC 12598. All the strains were stored at −80 °C in Roti®-Store cryo vials (Carl Roth GmbH, Karlsruhe, Germany) and before the tests were transferred into fresh Mueller-Hinton Medium (BioMaxima, Lublin, Poland) and incubated for 24 h at 37 °C. Subsequently, each bacterial inoculum was seeded on Mueller-Hinton Agar plates (BioMaxima) and incubated again for 24 h. The cultures prepared in this way were used in further antimicrobial assays and prepared as described above. The MIC values were determined by the broth microdilution method according to Clinical and Laboratory Standards Institute Protocol. For this purpose, initial inoculums of bacteria (0.5 × 10^5 colony forming unit (CFU)/mL) in Mueller–Hinton Broth were exposed to the ranging concentrations of compounds (0.5–256 µg/mL) and incubated for 18 h at 37 °C. The experiments were conducted on 96-well microtiter plates, with a final volume of 100 µL. Cell densities were adjusted spectrophotometrically (Multiskan™ GO Microplate Spectrophotometer, Thermo Scientific) at 600 nm. The MICs were taken as the lowest drug concentration at which a visible growth of microorganisms was inhibited. All experiments were conducted in triplicate and included positive (growth) and negative (sterility) controls.

S. aureus ATCC 12598 = assay type: cell-based, Staphylococcus aureus; details: S. aureus ATCC 12598; Mueller-Hinton Broth, 18 h
Procedure: as §2

S. aureus ATCC 9144 = assay type: cell-based, Staphylococcus aureus; details: S. aureus ATCC 9144; Mueller-Hinton Broth, 18 h
Procedure: as §2

S. aureus ATCC 25923 = assay type: cell-based, Staphylococcus aureus; details: S. aureus ATCC 25923; Mueller-Hinton Broth, 18 h
Procedure: as §2

[6] = tested on: S. aureus ATCC 33591 (MRSA); assay type: cell-based, Staphylococcus aureus; details: S. aureus ATCC 33591 (MRSA); Mueller-Hinton Broth, 18 h
Procedure: as §2

[7] = tested on: reference strains of S. aureus; assay type: cell-based, Staphylococcus aureus; details: five reference strains of S. aureus
Procedure: as §2, with “For this purpose, initial inoculums of bacteria (0.5 × 10^5 colony forming unit (CFU)/mL) in Mueller–Hinton Broth were exposed to the ranging concentrations of compounds (0.5–256 µg/mL) and incubated for 18 h at 37 °C.” left out

[8] = tested on: K. pneumoniae ATCC 700603; assay type: cell-based, Klebsiella pneumoniae; details: K. pneumoniae ATCC 700603; Mueller-Hinton Broth, 18 h
Procedure: as §2

## CC[C@H](C)[C@H](NC(=O)[C@H](CCCNC(=N)N)NC(=O)[C@H](CCC(N)=O)NC(=O)[C@@H](NC(=O)[C@@H](NC(=O)[C@H](CCCNC(=N)N)NC(=O)[C@H](CCCCN)NC(=O)c1ccccc1)[C@@H](C)CC)C(C)C)C(=O)N[C@@H](CCCCN)C(=O)N[C@@H](CC(=O)O)C(=O)N[C@@H](Cc1ccccc1)C(=O)N[C@@H](CC(C)C)C(=O)N[C@@H](CCCNC(=N)N)C(N)=O [VIII, Benzoic acid-KR12-NH2] (Bz-KRIVQRIKDFLR-NH2)
[1]
  MBEC: 16 µg/mL
[2]
  MBEC: 32 µg/mL
[3]
  MBEC: 16 µg/mL
[4]
  MBEC: 32 µg/mL
[5]
  MBEC: 64 µg/mL
S. aureus ATCC 6538
  MIC: 8 µg/mL (≈ 4.78 µM)
S. aureus ATCC 12598
  MIC: 16 µg/mL (≈ 9.55 µM)
S. aureus ATCC 9144
  MIC: 16 µg/mL (≈ 9.55 µM)
S. aureus ATCC 25923
  MIC: 32 µg/mL (≈ 19.1 µM)
[6]
  MIC: 32 µg/mL (≈ 19.1 µM)
[7]
  GM (geometric mean of the MIC values against S. aureus): 18.38 µg/mL
[8]
  MIC: 16 µg/mL (≈ 9.55 µM)
